pKd: −log10 of the molar value.
Target: Human transferrin (Htf) (Homo sapiens, UniProt P02787)
Assay: isothermal titration calorimetry
Assay type: binding

Chain of Human transferrin (Htf) (P02787 20-698): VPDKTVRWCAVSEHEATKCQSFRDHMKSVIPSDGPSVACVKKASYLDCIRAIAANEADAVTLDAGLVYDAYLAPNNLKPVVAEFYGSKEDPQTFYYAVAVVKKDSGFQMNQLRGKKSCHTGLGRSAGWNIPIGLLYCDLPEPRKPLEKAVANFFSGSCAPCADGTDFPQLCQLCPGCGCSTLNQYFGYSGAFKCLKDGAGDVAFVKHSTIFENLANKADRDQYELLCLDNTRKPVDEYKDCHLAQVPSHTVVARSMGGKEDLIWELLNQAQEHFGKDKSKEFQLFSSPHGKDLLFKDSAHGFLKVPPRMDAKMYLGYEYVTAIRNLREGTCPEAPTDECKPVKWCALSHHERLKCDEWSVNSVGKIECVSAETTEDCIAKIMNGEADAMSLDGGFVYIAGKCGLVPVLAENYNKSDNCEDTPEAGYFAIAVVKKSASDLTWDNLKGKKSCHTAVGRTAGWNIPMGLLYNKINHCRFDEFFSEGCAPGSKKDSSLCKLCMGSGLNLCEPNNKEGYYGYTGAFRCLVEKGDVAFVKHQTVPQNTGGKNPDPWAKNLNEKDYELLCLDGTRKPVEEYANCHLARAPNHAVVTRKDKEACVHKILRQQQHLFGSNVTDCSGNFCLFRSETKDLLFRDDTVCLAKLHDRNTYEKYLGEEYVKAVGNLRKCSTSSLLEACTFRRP

pKd: 5.84
Structure (SMILES): O=c1oc2c(O)c(O)cc3c(=O)oc4c(O)c(O)cc1c4c23 [Ellagic acid]

Source: article PMC11007773 (ACS Omega, 2024)
